Reference: patent publication US9433687B2, “Anti-Notch3 antibodies and antibody-drug conjugates” (Pfizer Inc., priority 2012, dated 2016)

What was measured:
[1] = OVCAR3 ovarian xenograft model; conditions: female, SCID Hairless Outbred (SHO), mouse, in vivo, ip
[2] = test system: OVCAR3 ovarian xenografts; assay: OVCAR3 ovarian xenograft model; conditions: dose 60 mg/kg (30 mg/kg twice a day) intraperitoneally Q7d×4
OVCAR3 (ovarian cancer) = assay: In vitro cytotoxicity (MTS), OVCAR3; type: cell-based, human; conditions: Table 13; four days; LP = lacked potency
Protocol: (§1) The effects of anti-Notch3 ADCs were assessed on 1) cell lines endogenously expressing Notch3 protein: HCC2429 (lung cancer), OVCAR3 (ovarian cancer) and MDA-MB-468 (breast cancer), 2) cell lines engineered to over-express full length human Notch3 protein: MDA-MB-468/hNotch3 and U2OS/hNotch3, and 3) a negative control cell line (SW900) using an MTS cellular viability indicator (Promega, Madison, Wis.). These cell lines were cultured with increasing concentrations of anti-Notch3 ADCs comprising rat-human chimeric anti-Notch3 antibodies, ch28 and ch75, and humanized anti-Notch3 antibodies, hu28 and hu75, conjugated to various linker-payload combinations of the present invention. As a specificity control for the anti-Notch3-ADCs, non-targeted control-ADCs (huNeg8.8-ADCs or ch2H6-ADCs) were also tested on the same cell lines. After four days, viability of each culture was assessed. IC50 values were calculated by logistic non-linear regression, model #203 with XL fit v4.2 (IDBS, Guildford, Surry, UK) and presented as ng Ab/mL. The drug antibody ratio (DAR) is also provided.
(§2) This process generated the anti-Notch3 cysteine mutant ADCs: hu28-(L443C)-vc0101 and hu28-(L443C/κK183C)-vc0101. The activity of the anti-Notch3 cysteine mutant ADCs were assessed on cell lines endogenously expressing Notch3 protein: HCC2429 (lung cancer) and OVCAR3 (ovarian cancer) using an MTS cellular viability indicator as described in previous Examples.

HCC2429 (lung cancer) = assay: In vitro cytotoxicity (MTS), HCC2429; type: cell-based, human; conditions: Table 13; four days; LP = lacked potency
Protocol: as §1, §2

[3] = test system: MDA-MB-468 (breast cancer); assay: In vitro cytotoxicity (MTS), MDA-MB-468; type: cell-based, human; conditions: Table 13; four days; LP = lacked potency
Protocol: as §1

U2OS/hNotch3 = U2OS/hNotch3 (Homo sapiens, UniProt Q9UM47); assay: In vitro cytotoxicity (MTS), U2OS/hNotch3; type: cell-based; parameters: U-2 OS cells stably over-expressing human full length Notch3 protein on cell surface; expressed in transfected cells; host or cells: U-2 OS (human osteosarcoma); conditions: Table 13; four days; LP = lacked potency
Protocol: as §1

MDA-MB-468/hNotch3 = target: T1, MDA-MB-468/hNotch3 (Homo sapiens, UniProt Q9UM47); assay: In vitro cytotoxicity (MTS), MDA-MB-468/hNotch3; type: cell-based; conditions: Table 13; four days; LP = lacked potency
T1 construct: cell lines engineered to over-express full length human Notch3 protein: MDA-MB-468/hNotch3 and U2OS/hNotch3; expressed in transfected cells; host or cells: MDA-MB-468
Protocol: as §1

N87 gastric xenografts = assay: N87 gastric xenograft model; type: in vivo, mouse; conditions: 5 mg/kg iv Q4dx4; FIG. 16D, 16E
Protocol: Similar in vivo experiments were performed with the N87 gastric cancer cell line as described above. To generate xenografts, nude (Nu/Nu) female mice were implanted subcutaneously with 8×10^6 N87 cells in 50% Matrigel (BD Biosciences).
The N87 gastric model was also dosed intravenously Q4d×4 with PBS vehicle, rat-human chimeric anti-Notch3 ADCs and control huNeg-8.8 ADCs, at a dose of 5 mg/kg as provided in FIG. 16D.
The N87 gastric model was also dosed intravenously Q4d×4 with PBS vehicle and rat-human chimeric anti-Notch3 ADCs ch28-mc0131, ch75-mc0131, ch28-m(H2O)c-0131 and ch75-m(H2O)c-0131 at a dose of 5 mg/kg as provided in FIG. 16E.

U2OS/hNotch3, sequence (Q9UM47 40-2321): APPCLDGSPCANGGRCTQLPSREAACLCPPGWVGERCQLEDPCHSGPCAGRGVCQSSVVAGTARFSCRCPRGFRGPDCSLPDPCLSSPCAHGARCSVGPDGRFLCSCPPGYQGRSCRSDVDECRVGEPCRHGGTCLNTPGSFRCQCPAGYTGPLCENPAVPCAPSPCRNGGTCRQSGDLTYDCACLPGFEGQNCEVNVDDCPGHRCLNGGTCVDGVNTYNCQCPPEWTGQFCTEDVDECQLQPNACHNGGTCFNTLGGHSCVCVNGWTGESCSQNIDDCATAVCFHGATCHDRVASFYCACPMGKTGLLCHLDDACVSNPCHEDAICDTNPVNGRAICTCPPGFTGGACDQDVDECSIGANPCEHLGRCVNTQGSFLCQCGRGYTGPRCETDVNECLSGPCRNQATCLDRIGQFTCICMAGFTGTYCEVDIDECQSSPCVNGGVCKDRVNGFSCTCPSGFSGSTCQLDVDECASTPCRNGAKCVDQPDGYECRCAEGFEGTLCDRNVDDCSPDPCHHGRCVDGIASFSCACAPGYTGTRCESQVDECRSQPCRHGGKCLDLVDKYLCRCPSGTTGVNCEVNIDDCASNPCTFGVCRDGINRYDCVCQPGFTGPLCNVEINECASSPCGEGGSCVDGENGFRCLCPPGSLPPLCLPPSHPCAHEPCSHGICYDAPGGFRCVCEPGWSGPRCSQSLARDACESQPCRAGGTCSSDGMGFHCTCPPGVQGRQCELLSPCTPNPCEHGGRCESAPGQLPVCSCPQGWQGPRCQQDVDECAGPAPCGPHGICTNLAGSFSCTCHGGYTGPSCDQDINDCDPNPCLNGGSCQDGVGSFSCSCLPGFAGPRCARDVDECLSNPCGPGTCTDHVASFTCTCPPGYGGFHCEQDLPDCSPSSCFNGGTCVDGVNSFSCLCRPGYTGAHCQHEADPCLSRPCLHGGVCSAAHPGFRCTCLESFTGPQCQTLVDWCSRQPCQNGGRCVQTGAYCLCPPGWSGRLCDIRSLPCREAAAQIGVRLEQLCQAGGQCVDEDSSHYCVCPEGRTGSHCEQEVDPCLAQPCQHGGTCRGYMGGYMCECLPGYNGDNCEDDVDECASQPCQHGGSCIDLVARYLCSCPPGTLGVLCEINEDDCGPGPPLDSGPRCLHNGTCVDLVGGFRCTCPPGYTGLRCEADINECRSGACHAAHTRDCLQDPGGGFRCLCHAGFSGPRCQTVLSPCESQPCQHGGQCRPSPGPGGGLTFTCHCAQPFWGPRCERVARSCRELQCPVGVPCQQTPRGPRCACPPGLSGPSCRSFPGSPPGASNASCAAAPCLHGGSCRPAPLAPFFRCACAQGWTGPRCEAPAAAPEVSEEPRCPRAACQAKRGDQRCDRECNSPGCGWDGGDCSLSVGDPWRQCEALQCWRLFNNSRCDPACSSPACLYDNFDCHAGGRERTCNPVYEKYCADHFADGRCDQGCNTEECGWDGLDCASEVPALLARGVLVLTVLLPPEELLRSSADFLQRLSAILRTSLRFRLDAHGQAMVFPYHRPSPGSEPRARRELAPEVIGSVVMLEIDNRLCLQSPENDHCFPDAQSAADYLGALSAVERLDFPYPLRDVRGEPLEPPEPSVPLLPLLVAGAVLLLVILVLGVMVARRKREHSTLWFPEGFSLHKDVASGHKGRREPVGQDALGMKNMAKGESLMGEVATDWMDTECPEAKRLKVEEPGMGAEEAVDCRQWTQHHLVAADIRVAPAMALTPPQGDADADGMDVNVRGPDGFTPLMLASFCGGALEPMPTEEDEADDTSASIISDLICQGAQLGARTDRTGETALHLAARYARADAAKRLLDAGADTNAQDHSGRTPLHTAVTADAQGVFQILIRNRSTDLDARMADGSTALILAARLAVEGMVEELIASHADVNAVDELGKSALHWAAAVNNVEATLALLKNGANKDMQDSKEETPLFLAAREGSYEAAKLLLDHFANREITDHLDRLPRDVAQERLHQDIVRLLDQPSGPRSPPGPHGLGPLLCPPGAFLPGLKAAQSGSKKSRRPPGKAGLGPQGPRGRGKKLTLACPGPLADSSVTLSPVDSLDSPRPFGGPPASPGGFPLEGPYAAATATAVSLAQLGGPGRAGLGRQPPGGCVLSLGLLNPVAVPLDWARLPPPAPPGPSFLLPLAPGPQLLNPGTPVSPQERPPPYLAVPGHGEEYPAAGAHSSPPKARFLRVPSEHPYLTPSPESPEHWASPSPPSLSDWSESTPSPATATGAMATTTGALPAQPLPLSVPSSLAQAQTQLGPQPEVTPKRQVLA
T1 sequence (Q9UM47 40-2321): as above

In the case of `CC(=O)O[C@H]1C(=O)[C@@]2(C)[C@H]([C@H](OC(=O)c3ccccc3)[C@]3(O)C[C@H](OC(=O)[C@H](O)[C@@H](NC(=O)c4ccccc4)c4ccccc4)C(C)=C1C3(C)C)[C@]1(OC(C)=O)CO[C@@H]1C[C@@H]2O` [paclitaxel, reference compound], the MTD [1] is reported as 60 mg/kg, the tumor volume ([2]; DAY 0) is reported as 169 mm3 and the tumor volume ([2]; DAY 6) is reported as 139 mm3. For the same molecule, the tumor volume ([2]; DAY 11) was 85 mm3, the tumor volume ([2]; DAY 14) was 84 mm3 and the tumor volume ([2]; DAY 18) was 61 mm3. For the same molecule, the tumor volume ([2]; DAY 21) was 50 mm3, the tumor volume ([2]; DAY 25) was 41 mm3 and the tumor volume ([2]; DAY 28) was 44 mm3. For the same molecule, the tumor volume ([2]; DAY 31) was 43 mm3, the tumor volume ([2]; DAY 34) was 50 mm3 and the tumor volume ([2]; DAY 38) was 55 mm3. It also gave a tumor volume ([2]; DAY 41) of 38 mm3, a tumor volume ([2]; DAY 45) of 39 mm3 and a tumor volume ([2]; DAY 49) of 40 mm3. The tumor volume ([2]; DAY 53) was 40 mm3, the tumor volume ([2]; DAY 56) was 39 mm3 and the tumor volume ([2]; DAY 59) was 37 mm3. The tumor volume ([2]; DAY 63) was 42 mm3, the tumor volume ([2]; DAY 67) was 33 mm3 and the tumor volume ([2]; DAY 70) was 28 mm3. For the same molecule, the tumor volume ([2]; DAY 74) was 32 mm3, the tumor volume ([2]; DAY 77) was 31 mm3 and the tumor volume ([2]; DAY 80) was 31 mm3. The tumor volume ([2]; DAY 83) was 38 mm3, the tumor volume ([2]; DAY 87) was 28 mm3 and the tumor volume ([2]; DAY 90) was 32 mm3. For the same molecule, the tumor volume ([2]; DAY 94) was 30 mm3, the tumor volume ([2]; DAY 97) was 31 mm3 and the tumor volume ([2]; DAY 102) was 26 mm3. For the same molecule, the tumor volume ([2]; DAY 105) was 31 mm3, the tumor volume ([2]; DAY 108) was 28 mm3 and the tumor volume ([2]; DAY 111) was 26 mm3. The tumor volume ([2]; DAY 115) was 31 mm3, the tumor volume ([2]; DAY 118) was 26 mm3 and the tumor volume ([2]; DAY 122) was 31 mm3.

B1: ch28-vc0101: ch28 conjugated to vc0101 linker-payload (conjugate)
VH: EVQLVESGGGLVQPGRSLTLSCVASGFTFRDYGMTWIRQAPGKGLTWVAYISSGSNYIYYAEAVKGRFTISRDNAKNTLYLQMTSLRSEDTALYFCTRRGPFVLDAWGQGASVTVSS
VL: DIQMTQSPSFLSASVGDRVTINCKASQSINRYLHWFQQKLGEAPKLLIYNANGLQTGIPSRFSGSGSGTDFTLTISSLQSEDVATYFCLQHNTWPDTFGAGTKLELK
For B1, the “IC50 (ng Ab/mL) ± S.E.M., OVCAR3” value (OVCAR3 (ovarian cancer)) was 635 ng Ab/mL, the “IC50 (ng Ab/mL) ± S.E.M., HCC2429” value (HCC2429 (lung cancer)) was 3230 ± 1116.5 ng Ab/mL and the “IC50 (ng Ab/mL) ± S.E.M., MDA-MB-468” value [3] was 5443 ± 2630.9 ng Ab/mL. For the same molecule, the “IC50 (ng Ab/mL) ± S.E.M., U2OS/hNotch3” value (U2OS/hNotch3) was 95 ± 18.2 ng Ab/mL and the “IC50 (ng Ab/mL) ± S.E.M., MDA-MB-468/hNotch3” value (MDA-MB-468/hNotch3) was 4 ± 0.5 ng Ab/mL.

B2: ch75-mc0131 (conjugate)
VH: QVKLLQSGAALVKPGASVKMSCKASGYAFTDYWVTWVKQSHGKSLEWIGEISPNSGGTNFNEKFKGKATLTVDKSTSTAYMELSRLTSEDSAIYYCTRGEIRYNWFAYWGQGTLVTVSS
VL: DIQMTQSPSSLSASVGDRVTITCKASQNVGNNIAWYQQKPGKAPKLLIYYASNRYTGVPSRFSGSGYGTDFTLTISSLQPEDFATYYCQRLYNSPFTFGGGTKVEIK
With B2 the “growth of N87 gastric xenografts” value (N87 gastric xenografts) was “inhibited growth of N87 gastric xenografts”, the “IC50 (ng Ab/mL) ± S.E.M., OVCAR3” value (OVCAR3 (ovarian cancer)) was 289 ng Ab/mL and the “IC50 (ng Ab/mL) ± S.E.M., HCC2429” value (HCC2429 (lung cancer)) was 671 ± 406.5 ng Ab/mL. For the same molecule, the “IC50 (ng Ab/mL) ± S.E.M., MDA-MB-468” value [3] was 8202 ± 2773.0 ng Ab/mL and the “IC50 (ng Ab/mL) ± S.E.M., U2OS/hNotch3” value (U2OS/hNotch3) was 19 ng Ab/mL.
